# Tested on: 931267-113-T-J1-PDC multicell spheroid viability
# Test: Anticancer human tumor 931267-113-T-J1-PDC patient-derived colon adenocarcinoma cell line growth inhibition [PI3K]
# Settings: for viability, T/C: stronger effect = lower value
# Procedure, shortened: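 Complex 3D spheroids (cancer cells + endothelial HUVEC + mesenchymal stem cells); drug pairs of targeted agent x inavolisib/alpelisib/duvelisib/copanlisib; half-log series from ~Cmax, max 10 microM if Cmax unknown; endpoint viability.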
# [1] = curve of first compound, second compound 0.0316 µM
# [2] = curve of first compound, second compound 0.1 µM
# [3] = curve of first compound, second compound 0.316 µM
# [4] = curve of first compound, second compound 1 µM
# [5] = second compound 0.0316 µM, first compound 0.0316 µM
# [6] = second compound 0.0316 µM, first compound 0.1 µM
# [7] = second compound 0.1 µM, first compound 0.0316 µM
# [8] = second compound 0.1 µM, first compound 0.1 µM
# [9] = second compound 0.316 µM, first compound 0.0316 µM
# [10] = second compound 0.316 µM, first compound 0.1 µM
# [11] = second compound 1 µM, first compound 0.0316 µM
# [12] = second compound 1 µM, first compound 0.1 µM
# [13] = curve of first compound, second compound 0.00316 µM
# [14] = curve of first compound, second compound 0.01 µM
# [15] = second compound 0.00316 µM, first compound 0.0316 µM
# [16] = second compound 0.00316 µM, first compound 0.1 µM
# [17] = second compound 0.00316 µM, first compound 0.316 µM
# [18] = second compound 0.00316 µM, first compound 1 µM
# [19] = second compound 0.00316 µM, first compound 3.16 µM
# [20] = second compound 0.00316 µM, first compound 10 µM
# [21] = second compound 0.01 µM, first compound 0.0316 µM
# [22] = second compound 0.01 µM, first compound 0.1 µM
# [23] = second compound 0.01 µM, first compound 0.316 µM
# [24] = second compound 0.01 µM, first compound 1 µM
# [25] = second compound 0.01 µM, first compound 3.16 µM
# [26] = second compound 0.01 µM, first compound 10 µM
# [27] = second compound 0.0316 µM, first compound 0.316 µM
# [28] = second compound 0.0316 µM, first compound 1 µM
# [29] = second compound 0.0316 µM, first compound 3.16 µM
# [30] = second compound 0.0316 µM, first compound 10 µM
# [31] = second compound 0.1 µM, first compound 0.316 µM
# [32] = second compound 0.1 µM, first compound 1 µM
# [33] = second compound 0.1 µM, first compound 3.16 µM
# [34] = second compound 0.1 µM, first compound 10 µM
# [35] = second compound 0.316 µM, first compound 0.316 µM
# [36] = second compound 0.316 µM, first compound 1 µM
# [37] = second compound 0.316 µM, first compound 3.16 µM
# [38] = second compound 0.316 µM, first compound 10 µM
# [39] = second compound 1 µM, first compound 0.316 µM
# [40] = second compound 1 µM, first compound 1 µM
# [41] = second compound 1 µM, first compound 3.16 µM
# [42] = second compound 1 µM, first compound 10 µM
# 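Also: viability read 7 days after compound addition.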
compound,measurement,setting,value
CC(=O)c1c(C)c2cnc(Nc3ccc(N4CCNCC4)cn3)nc2n(C2CCCC2)c1=O + CC(Nc1ncnc2nc[nH]c12)c1cc2cccc(Cl)c2c(=O)n1-c1ccccc1,IC50,[1],> 100 nM
same,IC50,[2],> 100 nM
same,IC50,[3],> 100 nM
same,IC50,[4],> 100 nM
same,IC50,"curve of first compound, second compound 3.16 µM",> 100 nM
same,IC50,"curve of first compound, second compound 10 µM",> 100 nM
same,"viability, T/C","second compound 0.0316 µM, first compound 0.000316 µM",115%
same,"viability, T/C","second compound 0.0316 µM, first compound 0.001 µM",99%
same,"viability, T/C","second compound 0.0316 µM, first compound 0.00316 µM",96.5%
same,"viability, T/C","second compound 0.0316 µM, first compound 0.01 µM",101%
same,"viability, T/C",[5],120%
same,"viability, T/C",[6],114%
same,"viability, T/C","second compound 0.1 µM, first compound 0.000316 µM",106%
same,"viability, T/C","second compound 0.1 µM, first compound 0.001 µM",104%
same,"viability, T/C","second compound 0.1 µM, first compound 0.00316 µM",110%
same,"viability, T/C","second compound 0.1 µM, first compound 0.01 µM",99.5%
same,"viability, T/C",[7],110%
same,"viability, T/C",[8],103%
same,"viability, T/C","second compound 0.316 µM, first compound 0.000316 µM",109%
same,"viability, T/C","second compound 0.316 µM, first compound 0.001 µM",105%
same,"viability, T/C","second compound 0.316 µM, first compound 0.00316 µM",98.1%
same,"viability, T/C","second compound 0.316 µM, first compound 0.01 µM",111%
same,"viability, T/C",[9],108%
same,"viability, T/C",[10],94.6%
same,"viability, T/C","second compound 1 µM, first compound 0.000316 µM",104%
same,"viability, T/C","second compound 1 µM, first compound 0.001 µM",105%
same,"viability, T/C","second compound 1 µM, first compound 0.00316 µM",104%
same,"viability, T/C","second compound 1 µM, first compound 0.01 µM",114%
same,"viability, T/C",[11],99%
same,"viability, T/C",[12],102%
same,"viability, T/C","second compound 3.16 µM, first compound 0.000316 µM",106%
same,"viability, T/C","second compound 3.16 µM, first compound 0.001 µM",95.7%
same,"viability, T/C","second compound 3.16 µM, first compound 0.00316 µM",90.7%
same,"viability, T/C","second compound 3.16 µM, first compound 0.01 µM",98%
same,"viability, T/C","second compound 3.16 µM, first compound 0.0316 µM",103%
same,"viability, T/C","second compound 3.16 µM, first compound 0.1 µM",96.1%
same,"viability, T/C","second compound 10 µM, first compound 0.000316 µM",97.3%
same,"viability, T/C","second compound 10 µM, first compound 0.001 µM",94.9%
same,"viability, T/C","second compound 10 µM, first compound 0.00316 µM",98%
same,"viability, T/C","second compound 10 µM, first compound 0.01 µM",93.3%
same,"viability, T/C","second compound 10 µM, first compound 0.0316 µM",94.7%
same,"viability, T/C","second compound 10 µM, first compound 0.1 µM",84.3%
CC1(C)CCC(Nc2ncc(C(F)(F)F)c(-c3c[nH]c4c(P(C)(C)=O)c(C#N)ccc34)n2)CN1 (centres undefined),"viability, T/C",compound 0.0316 µM,107% [middle of 4 runs]
same,"viability, T/C",compound 0.1 µM,102% [middle of 4 runs]
same,"viability, T/C",compound 0.316 µM,89.3% [middle of 4 runs]
same,"viability, T/C",compound 1 µM,85.7% [middle of 4 runs]
same,"viability, T/C",compound 10 µM,64.5% [middle of 4 runs]
same,IC50,curve of compound,> 10000 nM
Cc1nc(NC(=O)N2CCCC2C(N)=O)sc1-c1ccnc(C(C)(C)C(F)(F)F)c1 (centres undefined),"viability, T/C",compound 0.0316 µM,99.6% [middle of 7 runs]
same,"viability, T/C",compound 0.1 µM,94.8% [middle of 7 runs]
same,"viability, T/C",compound 0.316 µM,84.8% [middle of 7 runs]
same,"viability, T/C",compound 1 µM,80.8% [middle of 7 runs]
same,"viability, T/C",compound 3.16 µM,74.6% [middle of 7 runs]
same,"viability, T/C",compound 10 µM,63.1% [middle of 7 runs]
same,IC50,"compound alone, run of 05/08/2023",> 10000 nM
Cn1nccc1Nc1nccc(-c2ccn(C(CO)c3ccc(Cl)c(F)c3)c(=O)c2)n1 (centres undefined) + CC(Nc1ccc2c(c1)OCCn1cc(N3C(=O)OCC3C(F)F)nc1-2)C(N)=O,IC50,[13],8420 nM
same,IC50,[14],3650 nM
same,IC50,[1],4150 nM
same,IC50,[2],2890 nM
same,IC50,[3],1740 nM
same,IC50,[4],1090 nM
same,"viability, T/C",[15],96.7%
same,"viability, T/C",[16],98.6%
same,"viability, T/C",[17],88.6%
same,"viability, T/C",[18],81.2%
same,"viability, T/C",[19],64.5%
same,"viability, T/C",[20],47.4%
same,"viability, T/C",[21],99%
same,"viability, T/C",[22],92.4%
same,"viability, T/C",[23],97.2%
same,"viability, T/C",[24],79.9%
same,"viability, T/C",[25],52.3%
same,"viability, T/C",[26],37.2%
same,"viability, T/C",[5],99.5%
same,"viability, T/C",[6],91.5%
same,"viability, T/C",[27],82.6%
same,"viability, T/C",[28],74.3%
same,"viability, T/C",[29],54.4%
same,"viability, T/C",[30],33.1%
same,"viability, T/C",[7],102%
same,"viability, T/C",[8],86.1%
same,"viability, T/C",[31],86.1%
same,"viability, T/C",[32],69.8%
same,"viability, T/C",[33],46.5%
same,"viability, T/C",[34],25.9%
same,"viability, T/C",[9],91.7%
same,"viability, T/C",[10],76.2%
same,"viability, T/C",[35],73%
same,"viability, T/C",[36],61.8%
same,"viability, T/C",[37],38.6%
same,"viability, T/C",[38],18%
same,"viability, T/C",[11],72.8%
same,"viability, T/C",[12],76.5%
same,"viability, T/C",[39],68.8%
same,"viability, T/C",[40],51%
same,"viability, T/C",[41],29.2%
same,"viability, T/C",[42],17.7%
CC(Cn1ccc(-c2ccc(C#N)c(Cl)c2)n1)NC(=O)c1cc(C(C)O)[nH]n1 (centres undefined) + COc1c(OCCCN2CCOCC2)ccc2c3n(c(=NC(=O)c4cnc(N)nc4)nc12)CCN3,IC50,[13],> 10000 nM
same,IC50,[14],> 10000 nM
same,IC50,[1],> 10000 nM
same,IC50,[2],> 10000 nM
same,IC50,[3],< 31.6 nM
same,IC50,[4],< 31.6 nM
same,"viability, T/C",[15],95.4%
same,"viability, T/C",[16],96.7%
same,"viability, T/C",[17],104%
same,"viability, T/C",[18],99.4%
same,"viability, T/C",[19],99.8%
same,"viability, T/C",[20],104%
same,"viability, T/C",[21],89.7%
same,"viability, T/C",[22],102%
same,"viability, T/C",[23],97.8%
same,"viability, T/C",[24],100%
same,"viability, T/C",[25],92.5%
same,"viability, T/C",[26],85.9%
same,"viability, T/C",[5],91.8%
same,"viability, T/C",[6],96.4%
same,"viability, T/C",[27],78.6%
same,"viability, T/C",[28],82.5%
same,"viability, T/C",[29],78.4%
same,"viability, T/C",[30],70.5%
same,"viability, T/C",[7],68.8%
same,"viability, T/C",[8],72.5%
same,"viability, T/C",[31],64.9%
same,"viability, T/C",[32],65.4%
same,"viability, T/C",[33],65.3%
same,"viability, T/C",[34],63.1%
same,"viability, T/C",[9],47.5%
same,"viability, T/C",[10],44.1%
same,"viability, T/C",[35],45.3%
same,"viability, T/C",[36],42.4%
same,"viability, T/C",[37],47.7%
same,"viability, T/C",[38],37.9%
same,"viability, T/C",[11],32.5%
same,"viability, T/C",[12],34.4%
same,"viability, T/C",[39],30.9%
same,"viability, T/C",[40],32.5%
same,"viability, T/C",[41],34.5%
same,"viability, T/C",[42],29.5%
